Source: patent publication US9290737B2, “Method for enucleating nucleated erythrocyte, and enucleation inducer” (Kanazawa Medical University, priority 2009, dated 2016)
Where no end group is shown, it is not given here.

How the values were obtained:
Format in all cases: cell-based
[1] = test system: nucleated erythrocytes derived from human cord blood; assay: Enucleation rate of nucleated erythrocytes derived from human cord blood CD34-positive cells (DAPI staining and flow cytometry); conditions: 5.0 μM added on Day 4 in phase II, measured on Day 9; DAPI staining (FIG. 7) and flow cytometry (FIG. 8)
Method: CD34-positive hematopoietic stem cells derived from a human (derived from the cord blood, 90% or more CD34-positive, product from Lonza:
http://catalog.takara-bio.co.jp/product/basic_info.asp?unitid=U10 0004262) were cultured in HPGM medium. The cells at a density of 2×10^4 to 2×10^5 cells/ml were cultured with 25 ng/ml of SCF, 50 ng/ml of thrombopoietin, and 50 ng/ml of Flt-3 ligand for first 7 days, and this was used as a phase I.
Next, the cells at a density of 2×10^5 cells/ml were cultured with 3 U/ml of EPO, 25 ng/ml of SCF, 10 ng/ml of IL-3, and 10 ng/ml of IL-6, and this was used as a phase II. The cells were cultured with the addition of ACTH1-24, ACTH1-39, CLIP, or α-MSH at a concentration of 5.0 μM, or ACTH1-24 at a concentration of 0.5 μM on Day 4 in the phase II.
The erythrocytes in the above-mentioned phase II cultured with ACTH1-24, ACTH1-39, CLIP, or α-MSH on Day 9 were fixed with 10% formalin, and stained with 4′,6-diamidino-2-phenylindole (DAPI). Ten photographs were randomly taken under a fluorescence microscope, and the numbers of nucleated and enucleated erythrocytes were visually counted. The measurement was carried out in the blinded manner. The enucleation rate was calculated in the same manner as in Example 1.
(§1) Double staining for glycophorin A (Gly A) and the nucleus (propidium iodide, PI) was given to blood cells in the phase II cultured with ACTH1-24, CLIP, or α-MSH on Day 9 in the same manner as in the foregoing. The cells were analyzed using a flow cytometry (automatic cell analysis sorting apparatus, FACS Calibur/Becton Dickinson). Gly A-positive/PI-negative cells (corresponding to the left upper fraction of four dot plot fractions divided by data from flow cytometry in FIG. 9B) were determined as enucleated cells, and the enucleation rate of these enucleated cells relative to the total cells was calculated.

[2] = test system: nucleated erythrocytes derived from a fetal rat; assay: Enucleation rate of nucleated erythrocytes derived from fetal rat (DAPI staining, fluorescence microscope count); conditions: vs control without peptide
Method: Experimental rats were bred, and peripheral blood was collected from 12 fetuses aged 13 days post coitum.
The collected peripheral blood was centrifuged at 1,000×g for 5 minutes at room temperature (centrifuge: Hitachi/05PR-22). Then, serum was removed, and blood cells were suspended in 10 ml of culture medium (supplemented with 10% FBS (Sigma/CR1211)/RPMI-1640 Medium (c) (Sigma/R8578)/1% penicillin-streptomycin (Sigma/P4333)) in a clean bench. This suspension was centrifuged again, a supernatant was removed, and the cells were resuspended in the culture medium. This manipulation was repeated twice, and finally the cells were suspended in 10 ml of the culture medium to prepare a sample for culturing peripheral blood.
A blood cell (cell) density was counted using about 10 μl of this sample and a hemocytometer (Burker-Turk Deep 1/10 mm/Erma Tokyo/7787), and the sample was diluted based on the counted value to adjust to 2×10^6 cells/ml.
(§2) This sample was diluted to a cell density of 1×10^6 cells/ml with the culture medium, to which ACTH1-24 (SEQ ID NO: 2, manufactured by Sigma) was added at a final concentration of 1 μM or 5 μM to use as a subject culture medium. The sample to which no ACTH1-24 was added was used as a control.
1 ml each of the various subject culture media was dispensed into a 4-well chamber slide glass (Chamber Slide™ System/Lab Tek (registered trademark)/177380), and cultured for a predetermined period of time in an incubator (Sakura CO2 gas Incubator/Sakura/IC-160) under the condition at 37° C. at 5% CO2.
At 0, 3, and 6 hours of the culture, the cells in each subject culture medium were fixed with glutaraldehyde (25% glutaraldehyde solution/Wako Pure Chemical Industries Ltd./073-00536) at a final concentration of 2%. DAPI (1 mg/ml of DAPI solution/DOJINDO/340-07971) for staining nuclei was dripped to the culture medium at a final volume ratio of 1/20,000, which was then shaken for 5 minutes, subsequently excited by a UV source using a fluorescence microscope (OLYMPUS IX70), and 10 fixed points were photographed. Then, the number of cells in the photograph was counted.
The enucleation rate was calculated as follows. Enucleation rate (%)={Enucleated erythrocyte count/Total cell count (Nucleated cell (including nucleated erythrocytes and mesenchymal stem cells) count+Enucleated erythrocyte count)} […]
as §2, with “CLIP” for “ACTH1-24”, “11, manufactured by Sigma) or α-MSH (SEQ ID NO: 3,” for “2,”, “neither CLIP nor α-MSH” for “no ACTH1-24”
250 μl each of the various subject culture media were dispensed in an 8-well chamber slide glass (Chamber Slide™ System/Lab TekR/177402), and cultured for a predetermined period of time in an incubator under the condition at 37° C. at 5% CO2. At 3, 6, and 9 (only for the 5-μM addition samples) hours of the culture, each subject culture medium was sampled, and the culture medium was fixed with glutaraldehyde at a final concentration of 2%. DAPI for staining nuclei was dripped to the culture medium, which was then shaken for 5 minutes, subsequently microscopically observed using a fluorescence microscope, and 10 field images were randomly determined and photographed. The number of cells in each of the photographs was counted, and the mean value thereof was calculated. The enucleation rate was calculated in the same way as in Example 1.

[3] = test system: cells differentiating into erythrocytes derived from human cord blood; assay: Enucleation efficiency of cells derived from human cord blood (flow cytometry, Gly A/PI); conditions: 0.5 μM, culture as in Example 4, flow cytometry (FIG. 9A)
Method: as §1
ACTH1-24 at a concentration of 0.5 μM was added to the culture carried out in the same manner as in Example 4, and the enucleation rate was measured by flow cytometry.
Gly A is a surface marker of erythroblasts, reticulocytes, and mature erythrocytes. Thus, this method was cited as a method of measuring the percentage of “enucleated erythrocytes”/“cells differentiating into erythrocytes” in a population of blood cells including immature erythrocytes (see Peng J. et al., Nat. Cell Biol., 10: 314-321, 2008).

[4] = final concentration 1 μM, after 6 hours of culture
[5] = final concentration 5 μM, 3 hours of culture

| Substance | induction of enucleation (enucleation rate) [1] | induction of enucleation (enucleation rate) [2, 4] | induction of enucleation (enucleation rate) [2, 5] | induction of enucleation (enucleation rate) ([2]; final concentration 5 μM, after 6 hours of culture) | percentage of enucleated erythrocytes in cells differentiating into erythrocytes [3] |
| --- | --- | --- | --- | --- | --- |
| Acetyl-(N)-Ser-Tyr-Ser-Met-Glu-His-Phe-Arg-Trp-Gly-Lys-Pro-Val-NH2 (Ac-SYSMEHFRWGKPV-NH2) [α-MSH, melanocyte-stimulating hormone peptide containing an acetyl group, manufactured by Sigma] | able to be induced | able to be induced | able to be induced | – | – |
| RPVKVYPNGAEDESAEAFPLEF [CLIP, Corticotropin-Like Intermediate Lobe Peptide, manufactured by Sigma] | able to be induced | able to be induced | able to be induced | – | – |
| SYSMEHFRWGKPVGKKRRPVKVYPNVAENESAEAFPLEF [ACTH1-39, adrenocorticotropic hormone, manufactured by Sigma] | able to be induced | – | higher than that in the control | – | – |
| Ser-Tyr-Ser-Met-Glu-His-Phe-Arg-Trp-Gly-Lys-Pro-Val-Gly-Lys-Lys-Arg-Arg-Pro-Val-Lys-Val-Tyr-Pro (SYSMEHFRWGKPVGKKRRPVKVYP; ACTH1-24) | able to be induced | able to be induced | – | able to be induced | about 70% |
